Assay results: patent publication US20260053834A1, “COVALENT MODIFIERS OF AKT1 AND USES THEREOF” (Terremoto Biosciences, Inc., priority 2023, published 2026)

What was measured:
[1] = test system: LAPC4 prostate cancer cells, which express the AKT1 E17K allele; assay: Antiproliferative effects in LAPC4 cells (CellTiter Glo, 72 h); assay type: cell-based; settings: Homo sapiens, LAPC4, 72 h, read-out: LAPC4 proliferation IC50: GeoMean IC50
Procedure: Antiproliferative effects in LAPC4 cells. LAPC4 prostate cancer cells (Klein, K. A. et al. Nat Med 1997, 3, 402-408), which express the AKT1 E17K allele, were grown in IMDM media (Hyclone) supplemented with 12% FBS+1% P/S. To assess compound effects on growth, 1,000 cells/well were seeded in 384 well assay plates, incubated with compound dilutions dissolved in DMSO. After 72 h, intracellular ATP content was assessed with CellTiter Glo reagent (Promega) according to the manufacturer's instructions. IC50 values were calculated by fitting luminescence values to a log(inhibitor) vs. response Hill equation.

AKT2 = molecular target: T1, AKT2 (Homo sapiens, UniProt P31751); assay: Live cell target engagement by NanoBRET competitive probe displacement, AKT2; assay type: binding; settings: transfected HEK293 cells, 2 h at 37° C., read-out: AKT2 IC50: GeoMean IC50
T1 construct: expressed in transfected cells; host or cells: HEK293
T1 sequence (P31751 whole entry): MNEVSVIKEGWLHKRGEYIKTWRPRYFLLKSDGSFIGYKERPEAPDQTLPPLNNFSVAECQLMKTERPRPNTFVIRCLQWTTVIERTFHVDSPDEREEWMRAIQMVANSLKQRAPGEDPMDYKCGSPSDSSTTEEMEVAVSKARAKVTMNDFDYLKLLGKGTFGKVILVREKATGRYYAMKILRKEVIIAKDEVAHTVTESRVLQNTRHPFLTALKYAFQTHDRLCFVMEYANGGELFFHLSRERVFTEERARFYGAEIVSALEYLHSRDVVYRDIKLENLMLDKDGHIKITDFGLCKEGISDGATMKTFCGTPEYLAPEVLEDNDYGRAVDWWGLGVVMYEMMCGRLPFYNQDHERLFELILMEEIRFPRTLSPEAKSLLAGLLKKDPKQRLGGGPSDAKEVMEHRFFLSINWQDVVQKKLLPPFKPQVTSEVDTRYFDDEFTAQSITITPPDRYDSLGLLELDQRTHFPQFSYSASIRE
Procedure: (§1) Determining live cell AKT1 E17K, AKT1 WT, and AKT2 target engagement by NanoBRET competitive probe displacement. Live cell target engagement assays were performed as described (Vasta, J. D. et al. Cell Chem Biol 2018, 25(11), 206-214). Briefly, HEK293 cells were transfected with plasmids encoding kinase-NanoLuciferase fusion proteins overnight. Cells were then treated with serial dilutions of compound and an ˜EC50 concentration of fluorescently-tagged ATP-competitive tracer (Promega). After incubation for 2 h at 37° C., luciferase substrate and extracellular luciferase inhibitor were added to all wells, and luminescent intensity at 460 nm and 600 nm were measured on a multimode plate-reader. The ratio of E600/E460 was calculated to give the tracer engagement signal (BRET). IC50 values were calculated by fitting BRET values to a log(inhibitor) vs. response Hill equation.

AKT1 E17K = molecular target: T2, AKT1 E17K (Homo sapiens, UniProt P31749, E17K); assay: Live cell target engagement by NanoBRET competitive probe displacement, AKT1 E17K; assay type: binding; settings: transfected HEK293 cells, 2 h at 37° C., read-out: AKT1 E17K IC50: GeoMean IC50
T2 construct: expressed in transfected cells; host or cells: HEK293
T2 sequence (P31749 whole entry E17K): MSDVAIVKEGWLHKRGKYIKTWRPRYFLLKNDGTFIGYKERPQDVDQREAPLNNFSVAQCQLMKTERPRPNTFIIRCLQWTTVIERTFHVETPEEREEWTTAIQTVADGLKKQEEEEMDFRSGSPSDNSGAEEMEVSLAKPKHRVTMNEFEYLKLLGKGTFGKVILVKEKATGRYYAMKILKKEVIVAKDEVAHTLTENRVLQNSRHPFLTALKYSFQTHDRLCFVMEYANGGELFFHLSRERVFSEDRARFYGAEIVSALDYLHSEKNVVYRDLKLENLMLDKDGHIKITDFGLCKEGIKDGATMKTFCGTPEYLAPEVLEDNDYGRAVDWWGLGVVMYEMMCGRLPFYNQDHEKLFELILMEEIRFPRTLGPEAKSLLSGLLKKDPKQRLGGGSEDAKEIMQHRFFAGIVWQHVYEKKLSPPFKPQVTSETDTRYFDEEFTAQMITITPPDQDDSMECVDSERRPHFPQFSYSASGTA
Procedure: as §1

AKT1 WT = molecular target: T3, AKT1 WT (Homo sapiens, UniProt P31749); assay: Live cell target engagement by NanoBRET competitive probe displacement, AKT1 WT; assay type: binding; settings: transfected HEK293 cells, 2 h at 37° C., read-out: AKT1 WT IC50: GeoMean IC50
T3 construct: expressed in transfected cells; host or cells: HEK293
T3 sequence (P31749 whole entry): as the sequence (P31749 whole entry E17K) above, with K17E counted along it
Procedure: as §1

SMILES	IC50 [1] [nM]	IC50 (AKT2) [nM]	IC50 (AKT1 E17K) [nM]	IC50 (AKT1 WT) [nM]
Nc1ncccc1-c1nc2ccc(-n3cccn3)nc2n1-c1ccc2c(c1)CC[C@@H]2n1c(=O)[nH]c2cc(O)c(C=O)cc2c1=O [Example 238, 3-[(1S)-5-[2-(2-aminopyridin-3-yl)-5-(pyrazol-1-yl)imidazo[4,5-b]pyridin-3-yl]-2,3-dihydro-1H-inden-1-yl]-7-hydroxy-2,4-dioxo-1H-quinazoline-6-carbaldehyde]	≥ 2000	≥ 2000	100 to 2000	≥ 2000
Nc1ncccc1-c1nc2ccc(F)nc2n1-c1ccc2c(c1)CC[C@@H]2NC(=O)c1ccc(O)c(C=O)c1 [Example 48, N-[(1S)-5-[2-(2-aminopyridin-3-yl)-5-fluoroimidazo[4,5-b]pyridin-3-yl]-2,3-dihydro-1H-inden-1-yl]-3-formyl-4-hydroxybenzamide]	100 to 2000	≥ 2000	10 to 100	100 to 2000
COc1cc(F)c(C(=O)N[C@H]2CCc3cc(-n4c(-c5cccnc5N)nc5ccc(-n6cccn6)nc54)ccc32)cc1C=O [Example 236, N-[(1S)-5-[2-(2-aminopyridin-3-yl)-5-(pyrazol-1-yl)imidazo[4,5-b]pyridin-3-yl]-2,3-dihydro-1H-inden-1-yl]-2-fluoro-5-formyl-4-methoxybenzamide]	100 to 2000	10 to 100	10 to 100	< 10
Nc1ncccc1-c1nc2ccc(-n3cccn3)nc2n1-c1ccc2c(c1)CC[C@@H]2NC(=O)c1cc(C=O)c(O)c2scnc12 [Example 242, (S)—N-(5-(2-(2-aminopyridin-3-yl)-5-(1H-pyrazol-1-yl)-3H-imidazo[4,5-b]pyridin-3-yl)-2,3-dihydro-1H-inden-1-yl)-6-formyl-7-hydroxybenzo[d]thiazole-4-carboxamide]	100 to 2000	≥ 2000	10 to 100	100 to 2000
Nc1ncccc1-c1nc2ccc(-n3cccn3)nc2n1-c1ccc2c(c1)CC[C@@H]2NC(=O)c1csc(C=O)n1 [Example 143, (S)—N-(5-(2-(2-aminopyridin-3-yl)-5-(1H-pyrazol-1-yl)-3H-imidazo[4,5-b]pyridin-3-yl)-2,3-dihydro-1H-inden-1-yl)-2-formylthiazole-4-carboxamide]	100 to 2000	100 to 2000	100 to 2000	100 to 2000
COc1cnn(-c2ccc3nc(-c4cccnc4N)n(-c4ccc5c(c4)CC[C@@H]5NC(=O)c4ccc(O)c(C=O)c4)c3n2)c1 [Example 83, N-[(1S)-5-[2-(2-aminopyridin-3-yl)-5-(4-methoxypyrazol-1-yl)imidazo[4,5-b]pyridin-3-yl]-2,3-dihydro-1H-inden-1-yl]-3-formyl-4-hydroxybenzamide]	100 to 2000	100 to 2000	10 to 100	10 to 100
N#Cc1cnn(-c2ccc3nc(-c4cccnc4N)n(-c4ccc5c(c4)CC[C@@H]5NC(=O)c4ccc(O)c(C=O)c4)c3n2)c1 [Example 90, N-[(1S)-5-[2-(2-aminopyridin-3-yl)-5-(4-cyanopyrazol-1-yl)imidazo[4,5-b]pyridin-3-yl]-2,3-dihydro-1H-inden-1-yl]-3-formyl-4-hydroxybenzamide]	100 to 2000	100 to 2000	10 to 100	100 to 2000
Nc1ncccc1-c1nc2ccc(-n3cccn3)nc2n1-c1ccc2c(c1)CC[C@@H]2NCc1cc(C=O)c(O)cc1F [Example 239, 5-({[(1S)-5-[2-(2-aminopyridin-3-yl)-5-(pyrazol-1-yl)imidazo[4,5-b]pyridin-3-yl]-2,3-dihydro-1H-inden-1-yl]amino}methyl)-4-fluoro-2-hydroxybenzaldehyde]	≥ 2000	100 to 2000	10 to 100	10 to 100
CC1(NC(=O)c2ccc(O)c(C=O)c2)CCc2cc(-n3c(-c4cccnc4N)nc4ccc(-n5cccn5)nc43)ccc21 (stereo not drawn) [Example 219, N-(5-(2-(2-aminopyridin-3-yl)-5-(1H-pyrazol-1-yl)-3H-imidazo[4,5-b]pyridin-3-yl)-1-methyl-2,3-dihydro-1H-inden-1-yl)-3-formyl-4-hydroxybenzamide]	≥ 2000	100 to 2000	≥ 2000	100 to 2000
Cc1noc(-c2ccc3nc(-c4cccnc4N)n(-c4ccc5c(c4)CC[C@@H]5NC(=O)c4ccc(O)c(C=O)c4)c3n2)n1 [Example 179, N-[(1S)-5-[2-(2-aminopyridin-3-yl)-5-(3-methyl-1,2,4-oxadiazol-5-yl)imidazo[4,5-b]pyridin-3-yl]-2,3-dihydro-1H-inden-1-yl]-3-formyl-4-hydroxybenzamide]	100 to 2000	100 to 2000	10 to 100	10 to 100
Cc1ccc(-c2nc3ccc(-n4cccn4)nc3n2-c2ccc3c(c2)CC[C@@H]3NC(=O)c2ccc(O)c(C=O)c2)c(N)n1 [Example 166, (S)—N-(5-(2-(2-amino-6-methylpyridin-3-yl)-5-(1H-pyrazol-1-yl)-3H-imidazo[4,5-b]pyridin-3-yl)-2,3-dihydro-1H-inden-1-yl)-3-formyl-4-hydroxybenzamide]	≥ 2000	≥ 2000	≥ 2000	≥ 2000
Nc1ncccc1-c1nc2ccc(-n3cccn3)nc2n1-c1cc(F)c2c(c1)CC[C@@H]2NC(=O)c1ccc(O)c(C=O)c1 [Example 189, N-[(1S)-5-[2-(2-aminopyridin-3-yl)-5-(pyrazol-1-yl)imidazo[4,5-b]pyridin-3-yl]-7-fluoro-2,3-dihydro-1H-inden-1-yl]-3-formyl-4-hydroxybenzamide]	≥ 2000	≥ 2000	100 to 2000	100 to 2000

Further lines, results first:

IC50 [1] [nM]	IC50 (AKT2) [nM]	IC50 (AKT1 E17K) [nM]	IC50 (AKT1 WT) [nM]	SMILES
10 to 100	100 to 2000	10 to 100	10 to 100	COc1ccn(-c2ccc3nc(-c4cccnc4N)n(-c4ccc5c(c4)CC[C@@H]5NC(=O)c4ccc(O)c(C=O)c4)c3n2)n1 [Example 106, N-[(1S)-5-[2-(2-aminopyridin-3-yl)-5-(3-methoxypyrazol-1-yl)imidazo[4,5-b]pyridin-3-yl]-2,3-dihydro-1H-inden-1-yl]-3-formyl-4-hydroxybenzamide]
10 to 100	10 to 100	< 10	< 10	[2H]C(=O)c1cc(C(=O)N[C@H]2CCc3cc(-n4c(-c5cccnc5N)nc5ccc(-n6cccn6)nc54)ccc32)c(F)c(F)c1O [Example 204, (S)—N-(5-(2-(2-aminopyridin-3-yl)-5-(1H-pyrazol-1-yl)-3H-imidazo[4,5-b]pyridin-3-yl)-2,3-dihydro-1H-inden-1-yl)-2,3-difluoro-5-(formyl-d)-4-hydroxybenzamide]
10 to 100	100 to 2000	< 10	10 to 100	Nc1ncccc1-c1nc2ccc(-c3ncco3)nc2n1-c1ccc2c(c1)CC[C@@H]2NC(=O)c1ccc(O)c(C=O)c1 [Example 121, (S)—N-(5-(2-(2-aminopyridin-3-yl)-5-(oxazol-2-yl)-3H-imidazo[4,5-b]pyridin-3-yl)-2,3-dihydro-1H-inden-1-yl)-3-formyl-4-hydroxybenzamide]
10 to 100	10 to 100	10 to 100	10 to 100	Cc1cc(-n2cccn2)nc2c1nc(-c1cccnc1N)n2-c1ccc2c(c1)CC[C@@H]2NC(=O)c1cc(C=O)c(O)c(F)c1F [Example 153, (S)—N-(5-(2-(2-aminopyridin-3-yl)-7-methyl-5-(1H-pyrazol-1-yl)-3H-imidazo[4,5-b]pyridin-3-yl)-2,3-dihydro-1H-inden-1-yl)-2,3-difluoro-5-formyl-4-hydroxybenzamide]
10 to 100	100 to 2000	10 to 100	10 to 100	Nc1ncccc1-c1nc2ccc(-c3ccncc3)nc2n1-c1ccc2c(c1)CC[C@@H]2NC(=O)c1ccc(O)c(C=O)c1 [Example 24, N-[(1S)-5-[2-(2-aminopyridin-3-yl)-5-(pyridin-4-yl)imidazo[4,5-b]pyridin-3-yl]-2,3-dihydro-1H-inden-1-yl]-3-formyl-4-hydroxybenzamide]
10 to 100	100 to 2000	10 to 100	10 to 100	Nc1ncccc1-c1nc2ccc(-n3ccc(CO)n3)nc2n1-c1ccc2c(c1)CC[C@@H]2NC(=O)c1ccc(O)c(C=O)c1 [Example 127, (S)—N-(5-(2-(2-aminopyridin-3-yl)-5-(3-(hydroxymethyl)-1H-pyrazol-1-yl)-3H-imidazo[4,5-b]pyridin-3-yl)-2,3-dihydro-1H-inden-1-yl)-3-formyl-4-hydroxybenzamide]
